In patent US20250289793A1, “MACROCYCLIC INHIBITORS OF ATP CITRATE LYASE” (Esperion Therapeutics, Inc., priority 2022, published 2025):

How the values were obtained:
ACLY [1] = target: T1, ACLY (Homo sapiens (Human), UniProt P53396); experiment: Human ACLY (hACLY) RF/MS activity assay; assay type: biochemical; details: 1 nM hACLY; 30 min pre-incubation; 15 μM Coenzyme A, 50 μM ATP, 50 μM citrate; CoA to Acetyl-CoA by RF/MS; read-out: RFMS IC50 GMean
Description: Compounds of the disclosure were evaluated for their efficacy in inhibiting hACLY using rapid fire mass spectrometry (RF/MS).
The final reaction volume for each compound was 20 μl and consisted of buffer (50 mM Hepes pH 8.0, 10 mM MgCl2, 0.003% BSA, 0.01% Brij35, 50 mM NaCl, 4 mM DTT) and 1 nM hACLY, EV12992, PP6692) using Greiner, 384 well small volume, deep well plates (Cat #784201). A two-fold dilution series with a top concentration of 10 μM was used to record a concentration response curve. Both the substrate (CoA) and product (Acetyl-CoA) were quantified, and given a ratio. […] The final DMSO-concentration was 1% (v/v). Compounds were pre-incubated for 30 min with the buffered enzyme solution at RT (20° C.), and substrate solution was added (final concentrations: 15 μM Coenzyme A, 50 μM ATP and 50 μM citrate) to initiate the enzyme reaction. The enzyme reaction was incubated for additional 30 min at RT. The reaction was quenched upon addition of 40 μl of 5% Formic acid in H2O and centrifuged (4350 rpm at 20° C. for 10 min).
Product formation was quantified using a RF/MS-based method based on mass change of CoA (substrate) to Acetyl-CoA (product).

ACLY [2] = target: T1, ACLY; experiment: InCell Pulse assay (permeate HEK293 cells, bind to and stabilize ACLY); assay type: cell-based; details: HEK293 cells transfected with pICP-ACLY(FL)-ePL; 1 hour at 37° C., 55° C. heat pulse 10 minutes; read-out: InCell Pulse IC50 GMean
Description: HEK293 cells transfected for 24 hours with pICP-ACLY(FL)-ePL (3 μg DNA per T25 flask) using FuGene HD (Promega Corp.) were harvested and cryopreserved. On the day of the assay, the frozen transfected cells were thawed at 37° C., and the storage medium (DMEM with 2 mM L-Glutamine, 10% FBS and a final concentration of DMSO 10%) was exchanged with assay medium (OptiMEM; Gibco™, ThermoFischer Scientific). Compounds were 3-fold serially diluted in DMSO over 11-point concentration range. 100 nL of the corresponding dilutions were spotted into the assay plate (Greiner AG; 384 Well, PP, Small Volume, Deep Well, Natural, cat. no. 784201) followed by the addition of 20 μL of cell suspension adjusted with assay medium to 7.5E4 cells/mL. Subsequently, the plates were sealed and incubated for 1 hour at 37° C. Afterwards, the plates were fixed upside down in a rack and incubated in a 55° C. water bath for 10 minutes. Following this heat pulse step, plates were allowed to reach room temperature for 10 minutes and centrifuged for a few seconds at 1000 rpm and room temperature. 25 μL EA detection solution (working solution: 0.0167× InCell EA Reagent, 0.15× InCell Dilution Buffer, 0.167× InCell Lysis Buffer; 0.667× InCell Substrate Reagent; InCell Hunter Detection kit; Eurofins DiscoverX; cat. no. 96-0079) were added to each well. Afterwards, 42 μL were transferred from the assay plate to the detection plate (Corning Inc., 384-well Low Flange Black Flat Bottom Polystyrene NBS Microplate, cat. no. 3575), followed by an incubation for 1 hour at room temperature, a centrifugation step for 1 minute at 1000 rpm and the detection of the luminescence signal using an EnVision microplate reader (Perkin Elmer Inc.). Concentration-response curve-fitting and IC50 determination was performed using Evotec's in-house evaluation software APlus with a four-parameter non-linear regression fit model. Data was normalized to 0.5% (final concentration) DMSO as low/negative control and 1 μM (final concentration) NDI-094311 as high/positive control.

T1 sequence (P53396 whole entry): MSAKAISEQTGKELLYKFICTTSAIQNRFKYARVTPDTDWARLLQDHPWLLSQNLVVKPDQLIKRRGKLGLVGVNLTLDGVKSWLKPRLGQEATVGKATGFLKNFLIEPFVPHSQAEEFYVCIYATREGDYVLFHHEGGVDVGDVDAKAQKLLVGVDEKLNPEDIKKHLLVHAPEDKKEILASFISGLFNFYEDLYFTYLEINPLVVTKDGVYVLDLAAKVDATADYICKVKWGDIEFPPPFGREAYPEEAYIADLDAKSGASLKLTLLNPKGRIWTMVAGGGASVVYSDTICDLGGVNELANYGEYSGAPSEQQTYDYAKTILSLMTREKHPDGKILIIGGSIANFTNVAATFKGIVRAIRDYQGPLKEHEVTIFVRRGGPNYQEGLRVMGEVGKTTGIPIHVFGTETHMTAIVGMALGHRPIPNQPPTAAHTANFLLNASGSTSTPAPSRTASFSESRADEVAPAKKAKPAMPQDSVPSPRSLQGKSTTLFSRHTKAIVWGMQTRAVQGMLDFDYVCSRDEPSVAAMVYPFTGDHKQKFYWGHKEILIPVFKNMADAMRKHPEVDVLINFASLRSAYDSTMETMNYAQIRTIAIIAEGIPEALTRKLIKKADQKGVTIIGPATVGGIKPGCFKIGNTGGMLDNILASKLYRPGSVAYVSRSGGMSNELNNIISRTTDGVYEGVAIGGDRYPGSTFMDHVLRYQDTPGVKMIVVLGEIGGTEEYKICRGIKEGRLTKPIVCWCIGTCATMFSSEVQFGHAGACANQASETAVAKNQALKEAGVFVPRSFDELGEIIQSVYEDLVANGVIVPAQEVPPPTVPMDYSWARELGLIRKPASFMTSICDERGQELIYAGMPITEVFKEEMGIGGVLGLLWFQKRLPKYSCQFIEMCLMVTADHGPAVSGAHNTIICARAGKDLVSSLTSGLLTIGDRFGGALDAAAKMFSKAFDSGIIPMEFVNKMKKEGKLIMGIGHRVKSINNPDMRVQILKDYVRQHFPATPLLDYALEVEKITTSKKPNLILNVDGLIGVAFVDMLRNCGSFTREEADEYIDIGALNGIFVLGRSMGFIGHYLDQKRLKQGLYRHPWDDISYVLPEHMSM

| SMILES | IC50 (ACLY [1]) | IC50 (ACLY [2]) |
| --- | --- | --- |
| O=C1OCCOc2ccc(C3CC3)cc2-c2cc(c(F)cc2F)NS(=O)(=O)c2cc1cc(Cl)c2O [Compound 31, 15-chloro-4-cyclopropyl-21,23-difluoro-16-hydroxy-8,11-dioxa-18lambda6-thia-19-azatetracyclo[18.3.1.1^13,17.0^2,7]pentacosa-1(23),2,4,6,13(25),14,16,20(24),21-nonaene-12,18,18-trione] | 100 to 10000 nM | 1000 to 50000 nM |
| O=C1OCCOc2ncccc2-c2cc(c(F)cc2F)NS(=O)(=O)c2cc1cc(Cl)c2O [Compound 32, 15-chloro-21,23-difluoro-16-hydroxy-8,11-dioxa-18lambda6-thia-6,19-diazatetracyclo[18.3.1.1^13,17.0^2,7]pentacosa-1(24),2,4,6,13,15,17(25),20,22-nonaene-12,18,18-trione] | < 20 nM | < 300 nM |
| O=C1c2cc(Cl)c(O)c(c2)S(=O)(=O)Nc2cc(c(F)cc2F)-c2ccccc2OCC2CN1C2 [Compound 33, 16-chloro-22,24-difluoro-17-hydroxy-19,19-dioxo-8-oxa-19λ6-thia-12,20-diazapentacyclo[19.3.1.110,12.114,18.02,7]heptacosa-1(25),2,4,6,14,16,18(26),21,23-nonaen-13-one] | 20 to 100 nM | 300 to 1000 nM |
| O=C1OCc2cccc(c2)Oc2cc(c(F)cc2F)NS(=O)(=O)c2cc1cc(Cl)c2O [Compound 34, 12-chloro-4,6-difluoro-11-hydroxy-9,9-dioxo-2,16-dioxa-9λ6-thia-8-azatetracyclo[16.3.1.13,7.110,14]tetracosa-1(22),3,5,7(24),10(23),11,13,18,20-nonaen-15-one] | 100 to 10000 nM | ≥ 50000 nM |
| Cn1cc2cc(c1=O)S(=O)(=O)Nc1cc(c(F)cc1F)-c1ccccc1OCCOC2=O [Compound 35, 21,23-difluoro-15-methyl-18,18-dioxo-8,11-dioxa-18λ6-thia-15,19-diazatetracyclo[18.3.1.113,17.02,7]pentacosa-1(23),2(7),3,5,13,17(25),20(24),21-octaene-12,16-dione] | ≥ 10000 nM | ≥ 50000 nM |
| O=C1OCCOc2ccccc2-c2cc(c(F)cc2F)NS(=O)(=O)c2cc1c[nH]c2=O [Compound 36, 21,23-difluoro-18,18-dioxo-8,11-dioxa-18λ6-thia-15,19-diazatetracyclo[18.3.1.113,17.02,7]pentacosa-1(23),2(7),3,5,13,17(25),20(24),21-octaene-12,16-dione] | 20 to 100 nM | ≥ 50000 nM |
| O=C1OCCOc2ccc(F)cc2-c2ccc(F)c(c2)NS(=O)(=O)c2cc1c[nH]c2=O [Compound 37, 4,21-difluoro-18,18-dioxo-8,11-dioxa-18λ6-thia-15,19-diazatetracyclo[18.3.1.113,17.02,7]pentacosa-1(23),2(7),3,5,13,17(25),20(24),21-octaene-12,16-dione] | 100 to 10000 nM | ≥ 50000 nM |
| O=C1OCCOc2ccccc2-c2cc(c(F)cc2F)NS(=O)(=O)c2cc1cc(=O)[nH]2 [Compound 38, 21,23-difluoro-18,18-dioxo-8,11-dioxa-18λ6-thia-16,19-diazatetracyclo[18.3.1.113,17.02,7]pentacosa-1(23),2(7),3,5,13,17(25),20(24),21-octaene-12,15-dione] | 20 to 100 nM | ≥ 50000 nM |
| O=C1OCC2Cc3cccc(c3O2)-c2cc(c(F)cc2F)NS(=O)(=O)c2cc1cc(Cl)c2O (stereo not drawn) [Compound 39, 15-chloro-21,23-difluoro-16-hydroxy-18,18-dioxo-8,11-dioxa-18λ6-thia-19-azapentacyclo[18.3.1.16,9.113,17.02,7]hexacosa-1(23),2(7),3,5,13,15,17(25),20(24),21-nonaen-12-one] | < 20 nM | < 300 nM |
| O=C1OCCCc2ccccc2-c2ccc(F)c(c2)NS(=O)(=O)c2cc1cc(Cl)c2O [Compound 42, 15-chloro-21-fluoro-16-hydroxy-18,18-dioxo-11-oxa-18λ6-thia-19-azatetracyclo[18.3.1.113,17.02,7]pentacosa-1(23),2(7),3,5,13,15,17(25),20(24),21-nonaen-12-one] | 20 to 100 nM | < 300 nM |
| O=C1OCCOc2cc(F)ccc2-c2ccc(F)c(c2)NS(=O)(=O)c2cc1cc(Cl)c2O [Compound 48, 15-chloro-5,21-difluoro-16-hydroxy-18,18-dioxo-8,11-dioxa-18λ6-thia-19-azatetracyclo[18.3.1.113,17.02,7]pentacosa-1(23),2(7),3,5,13(25),14,16,20(24),21-nonaen-12-one] | < 20 nM | < 300 nM |

Results, then the compound that gave them:

| IC50 (ACLY [1]) | IC50 (ACLY [2]) | SMILES |
| --- | --- | --- |
| 20 to 100 nM | 300 to 1000 nM | CC1CCOC(=O)c2cc(Cl)c(O)c(c2)S(=O)(=O)Nc2cc(c(F)cc2F)-c2ccccc21 (stereo not drawn) [Compound 43, 15-chloro-21,23-difluoro-16-hydroxy-8-methyl-18,18-dioxo-11-oxa-18λ6-thia-19-azatetracyclo[18.3.1.113,17.02,7]pentacosa-1(23),2(7),3,5,13,15,17(25),20(24),21-nonaen-12-one] |
| < 20 nM | < 300 nM | O=C1OCCOc2ccc(F)cc2-c2ccc(F)c(c2)NS(=O)(=O)c2cc1cc(Cl)c2O [Compound 46, 15-chloro-4,21-difluoro-16-hydroxy-18,18-dioxo-8,11-dioxa-18λ6-thia-19-azatetracyclo[18.3.1.113,17.02,7]pentacosa-1(23),2(7),3,5,13,15,17(25),20(24),21-nonaen-12-one] |
| 20 to 100 nM | < 300 nM | COc1cc(F)c2cc1-c1ccccc1OCCOC(=O)c1cc(Cl)c(O)c(c1)S(=O)(=O)N2 [Compound 47, 15-chloro-21-fluoro-16-hydroxy-23-methoxy-18,18-dioxo-8,11-dioxa-18λ6-thia-19-azatetracyclo[18.3.1.113,17.02,7]pentacosa-1(23),2(7),3,5,13(25),14,16,20(24),21-nonaen-12-one] |
| ≥ 10000 nM | ≥ 50000 nM | Cc1cccc2c1-c1cc(c(F)cc1F)NS(=O)(=O)c1cc(cc(Cl)c1O)C(=O)OCCO2 [Compound 49, 15-chloro-21,23-difluoro-16-hydroxy-3-methyl-18,18-dioxo-8,11-dioxa-18λ6-thia-19-azatetracyclo[18.3.1.113,17.02,7]pentacosa-1(23),2(7),3,5,13(25),14,16,20(24),21-nonaen-12-one] |
| < 20 nM | < 300 nM | Cc1cc(F)c2cc1-c1ccccc1OCCOC(=O)c1cc(Cl)c(O)c(c1)S(=O)(=O)N2 [Compound 50, 15-chloro-21-fluoro-16-hydroxy-23-methyl-18,18-dioxo-8,11-dioxa-18λ6-thia-19-azatetracyclo[18.3.1.113,17.02,7]pentacosa-1(23),2(7),3,5,13(25),14,16,20(24),21-nonaen-12-one] |
| 100 to 10000 nM | ≥ 50000 nM | O=C1OCCOc2ccccc2-c2ccc(F)c(c2F)NS(=O)(=O)c2cc1cc(Cl)c2O [Compound 51, 15-chloro-21,24-difluoro-16-hydroxy-18,18-dioxo-8,11-dioxa-18λ6-thia-19-azatetracyclo[18.3.1.113,17.02,7]pentacosa-1(23),2(7),3,5,13(25),14,16,20(24),21-nonaen-12-one] |
| 20 to 100 nM | 300 to 1000 nM | O=C1OCCOc2ccc(Cl)cc2-c2ccc(F)c(c2)NS(=O)(=O)c2cc1cc(Cl)c2O [Compound 52, 4,15-dichloro-21-fluoro-16-hydroxy-18,18-dioxo-8,11-dioxa-18λ6-thia-19-azatetracyclo[18.3.1.113,17.02,7]pentacosa-1(23),2(7),3,5,13,15,17(25),20(24),21-nonaen-12-one] |
